From patent publication US11618738B2, “Compound and application thereof in treating inflammation or inflammation-related diseases” (SICHUAN CENTER FOR TRANSLATIONAL MEDICINE OF TRADITIONAL …, priority 2017, dated 2023)
Where two headings read alike, the source gives them in different places. Marks after values point to notes of the source that are not given here.

Experiments:
[1] = system: 10% egg white-induced foot swelling in rats; assay: 10% egg white-induced foot swelling in rats; assay type: in vivo; details: for Foot swelling: mean ± SD
From the text: Injecting 10% egg white into rat paws can cause early acute inflammation such as redness, heat, swelling, and pain in rat paws. In this experiment, the anti-inflammatory effects of UTLOH series compounds were observed by the degree of swelling of the paws of rats after inflammation.
SPF grade SD rats, half female and half male (100-120 g/mouse) were randomly grouped according to body weight. Each group was given the corresponding drugs by gavage, once a day, for 3 consecutive days, with a gavage volume of 1 ml/100 g. Before the experiment, the ankle joint of the right hind foot of each group of rats was marked, and the foot volume of each group of rats was measured twice with a rat foot volume meter, and the average of the two times was taken as the […]. 30 minutes after the last administration, the rats in each group were given a subcutaneous needle in the right hind paw, and injected with 10% fresh egg white solution 0.1 ml/mouse to cause inflammation, establishing a rat model of paw swelling. The post-inflamed foot volume in mice was measured twice at 1 h, 2 h, 3 h, and 4 h after inflammation, and the average of the two times was taken as the post-inflamed foot volume. The normal group was given 1 ml/100 g volume of 0.5% CMC-Na solution by gavage according to body weight.

[2] = system: acute gouty arthritis in rats induced by sodium urate crystals; assay: Foot swelling in rats with acute gouty arthritis induced by sodium urate crystals; assay type: in vivo
Description: Injecting sodium urate crystals into the joint cavity to establish an acute gouty arthritis model. Its pathological and clinical manifestations are very similar. It is a classic method commonly used in animal experiments to study gouty arthritis. This experiment will explore the effects of UTLOH series drugs on animals with acute gouty arthritis induced by sodium urate.
SPF grade SD rats, half female and half male (200-220 g/mouse), were randomly grouped by weight. The drug was administered once a day, for 3 consecutive days. […] Rats in the normal group were injected with an equal volume of sterile saline to the back of the right ankle joint. The administration was continued after modeling, once a day for 3 consecutive days. The ankle joint and foot volume of the rats in each group were measured respectively before modeling and 2 h, 4 h, 8 h, 24 h and 48 h after modeling.

[3] = system: hot plate pain in mice; assay: Hot plate pain threshold in mice; assay type: in vivo; details: for Percentage increase in pain threshold (%): mean ± SD
Description: The hot plate method uses a certain intensity of warm heat to stimulate mice to produce pain reaction. This experiment observes the analgesic effect of UTLOH series compounds.
Female SPF-grade Kunming mice (18-22 g/mouse) were put in a hot plate apparatus at a temperature of 55±0.5° C., and the pain threshold of the mice was measured. The measurement was performed twice, and the measurement was performed every 5 minutes. Taking the mouse licking hind feet as the observation index. The mice with pain response within 30 s were selected as experimental animals. The pre-selected qualified mice were randomly grouped according to their body weight. The blank group was intraperitoneally injected with 0.2 ml/10 g body weight of normal saline, and the other groups were intraperitoneally injected with corresponding drugs. The pain threshold was measured 30 and 60 minutes after the administration. If the mouse had no pain within 60 seconds, it was taken out immediately and calculated at 60 seconds.

[4] = system: NO induced by LPS; assay: Inhibition of LPS-induced NO in RAW 264.7 cells (Greiss reagent); assay type: cell-based, mice; details: for IC50: Mus musculus, RAW264.7, RAW 264.7 cells, LPS 100 ng/mL, overnight
From the text: Nitric oxide (NO) is a signaling molecule that plays a key role in the pathogenesis of inflammation. Under abnormal conditions, NO is a pro-inflammatory mediator that causes inflammation due to its overproduction. Therefore, the regulation of elevated NO levels by stimulants (such as LPS) has been widely used as a screening method to identify anti-inflammatory drugs. Since NO is oxidized into nitrite and nitrate, the determination of total NO2^−/NO3^− is a conventional method for determining NO levels, and Griess reagent is usually used in this type of experiment.
This example is taken from a previous publication by Song et al.^[1]. In brief, mice RAW 264.7 cells were treated with increasing doses of each test compound at 37° C. for 1 hour. Thereafter, the cells were attacked with 20 μL/well of LPS (equivalent to a final concentration of 100 ng/mL). The cells were further incubated overnight at 37° C. A commercial ELISA assay kit obtained from R&D Systems (Minneapolis, Minn.) was used to determine the level of PGE2 in the supernatant, and three parallel experiments were performed. The optical density of each well was measured using a BioTek Epoch microplate reader (Winooski, Vt.) set to 450 nm. The NO study was performed in a similar manner, but Greiss reagent was used to monitor the level of NO, and the results were read at 550 nm.

[5] = system: xylene-induced ear swelling in mice; assay: Xylene-induced ear swelling in mice; assay type: in vivo; details: for Swelling rate (%): 20 minutes after xylene, mean ± SD
From the text: Xylene applied to the ears of mice can cause acute inflammatory swelling of the ears of the mice. The anti-inflammatory effects of the tested drugs were observed by the degree of swelling of the ears of the mice after the inflammation.
Taking Kunming mice, SPF grade, half male and half […] (18-22 g/mouse) and randomly grouping them according to body weight. The normal control group was given 0.5% CMC-Na suspension by gavage administration, and the other groups were given corresponding drugs (0.2 ml/10 g) for 3 consecutive days, once a day. 0.5 h after the last administration, 0.02 ml of xylene was applied to the right auricle of each group of mice, and the left side was not applied as a control, establishing a mouse ear swelling model. 20 minutes after the inflammation, the mice were killed by cervical dislocation. Both ears were cut along the baseline of the auricle, and the discs on the same part of the left and right ears were punched out with a punch (6 mm of diameter) and weighed.

Question: How did the “Foot swelling” value ([1]; 10 mg/kg gavage once a day for 3 days, 1 h after inflammation) turn out when `Cc1cc(C(=O)Nc2ccccc2O)no1` [UTLOH-4a] was run?
Answer: 0.50 ± 0.08 mL

Question: What about the “Foot swelling” value ([1]; 10 mg/kg gavage once a day for 3 days, 2 h after inflammation) of the same compound?
Answer: 0.79 ± 0.07 mL

Question: And the “Foot swelling” value ([1]; 10 mg/kg gavage once a day for 3 days, 3 h after inflammation)?
Answer: 0.63 ± 0.13 mL

Question: What about the “Foot swelling” value ([1]; 10 mg/kg gavage once a day for 3 days, 4 h after inflammation) of the same compound?
Answer: 0.47 ± 0.13 mL

Question: What about the “Foot swelling” value ([1]; 20 mg/kg gavage once a day for 3 days, 1 h after inflammation) of the same compound?
Answer: 0.55 ± 0.11 mL

Question: What about the “Foot swelling” value ([1]; 20 mg/kg gavage once a day for 3 days, 2 h after inflammation) of the same compound?
Answer: 0.79 ± 0.14 mL

Question: And the “Foot swelling” value ([1]; 20 mg/kg gavage once a day for 3 days, 3 h after inflammation)?
Answer: 0.64 ± 0.15 mL

Question: And the “Foot swelling” value ([1]; 20 mg/kg gavage once a day for 3 days, 4 h after inflammation)?
Answer: 0.48 ± 0.12 mL

Question: And the “Foot swelling” value ([1]; 40 mg/kg gavage once a day for 3 days, 1 h after inflammation)?
Answer: 0.65 ± 0.18 mL

Question: And the “Foot swelling” value ([1]; 40 mg/kg gavage once a day for 3 days, 2 h after inflammation)?
Answer: 0.77 ± 0.11 mL

Question: What about the “Foot swelling” value ([1]; 40 mg/kg gavage once a day for 3 days, 3 h after inflammation) of the same compound?
Answer: 0.57 ± 0.15 mL

Question: What about the “Foot swelling” value ([1]; 40 mg/kg gavage once a day for 3 days, 4 h after inflammation) of the same compound?
Answer: 0.48 ± 0.12 mL

Question: What about the “foot swelling compared with the normal group (in words)” value ([1]; low, medium- and high-dose group, 1 h after inflammation) of the same compound?
Answer: significantly reduce

Question: What about the “Foot swelling” value ([2]; 10 mg/kg once a day, 2 h after modeling, mean ± SD) of the same compound?
Answer: 0.33 ± 0.20 mL

Question: And the “Foot swelling” value ([2]; 10 mg/kg once a day, 4 h after modeling, mean ± SD)?
Answer: 0.31 ± 0.10 mL

Question: What about the “Foot swelling” value ([2]; 10 mg/kg once a day, 8 h after modeling, mean ± SD) of the same compound?
Answer: 0.29 ± 0.09 mL

Question: And the “Foot swelling” value ([2]; 10 mg/kg once a day, 24 h after modeling, mean ± SD)?
Answer: 0.20 ± 0.11 mL

Question: What about the “Foot swelling” value ([2]; 10 mg/kg once a day, 48 h after modeling, mean ± SD) of the same compound?
Answer: 0.03 ± 0.11 mL

Question: And the “Foot swelling” value ([2]; 20 mg/kg once a day, 2 h after modeling, mean ± SD)?
Answer: 0.28 ± 0.13 mL

Question: And the “Foot swelling” value ([2]; 20 mg/kg once a day, 4 h after modeling, mean ± SD)?
Answer: 0.3 ± 0.13 mL

Question: And the “Foot swelling” value ([2]; 20 mg/kg once a day, 8 h after modeling, mean ± SD)?
Answer: 0.32 ± 0.09 mL

Question: What about the “Foot swelling” value ([2]; 20 mg/kg once a day, 24 h after modeling, mean ± SD) of the same compound?
Answer: 0.21 ± 0.14 mL

Question: And the “Foot swelling (ml)” value ([2]; 20 mg/kg once a day, 48 h after modeling, mean ± SD)?
Answer: 0.07 ± 13*^ ml

Question: What about the “Foot swelling” value ([2]; 40 mg/kg once a day, 2 h after modeling, mean ± SD) of the same compound?
Answer: 0.30 ± 0.13 mL

Question: What about the “Foot swelling” value ([2]; 40 mg/kg once a day, 4 h after modeling, mean ± SD) of the same compound?
Answer: 0.36 ± 0.13 mL

Question: What about the “Foot swelling” value ([2]; 40 mg/kg once a day, 8 h after modeling, mean ± SD) of the same compound?
Answer: 0.36 ± 0.09 mL

Question: What about the “Foot swelling” value ([2]; 40 mg/kg once a day, 24 h after modeling, mean ± SD) of the same compound?
Answer: 0.19 ± 0.11 mL

Question: What about the “Foot swelling” value ([2]; 40 mg/kg once a day, 48 h after modeling, mean ± SD) of the same compound?
Answer: 0.11 ± 0.09 mL

Question: What about the “foot volume compared with the model group (in words)” value ([2]; low-, medium- and high-dose groups, 24 h and 48 h after injection of sodium urate crystals) of the same compound?
Answer: significantly reduce

Question: And the “Percentage increase in pain threshold (%)” value (from here on “Percentage increase … (%)”) ([3]; 25 mg/kg intraperitoneal, 30 min after administration)?
Answer: −15.08 ± 37.87%

Question: And the “Percentage increase … (%)” value ([3]; 25 mg/kg intraperitoneal, 60 min after administration)?
Answer: −16.76 ± 33.81%

Question: And the “Percentage increase … (%)” value ([3]; 50 mg/kg intraperitoneal, 30 min after administration)?
Answer: −6.95 ± 41.45%

Question: And the “percentage increase in the pain threshold, hot plate (in words)” value ([3]; 100 mg/kg and 200 mg/kg, 30 and 60 minutes after administration)?
Answer: significantly reduce

Question: What about the “Percentage increase … (%)” value ([3]; 100 mg/kg intraperitoneal, 30 min after administration) of the same compound?
Answer: −19.99 ± 38.23 %

Question: And the “Percentage increase … (%)” value ([3]; 100 mg/kg intraperitoneal, 60 min after administration)?
Answer: −34.23 ± 39.23 %

Question: And the “Percentage increase … (%)” value ([3]; 200 mg/kg intraperitoneal, 30 min after administration)?
Answer: −30.12 ± 27.69 %

Question: And the “Percentage increase … (%)” value ([3]; 200 mg/kg intraperitoneal, 60 min after administration)?
Answer: −29.65 ± 24.62 %

Question: What about the IC50 ([4]; read-out: NO IC50 (μM), class) of the same compound?
Answer: < 10 µM

Question: What about the IC50 ([4]; read-out: NO IC50 (μM), value in brackets) of the same compound?
Answer: 1.4 µM

Question: And the “inhibition of LPS-induced NO compared with leflunomide and teriflunomide (in words)” value ([4]; compared with leflunomide and teriflunomide)?
Answer: more strongly

Question: What about the “Swelling rate (%)” value ([5]; 6.25 mg/kg once a day for 3 days) of the same compound?
Answer: 49.77 ± 22.15 %

Question: What about the “Swelling rate (%)” value ([5]; 12.5 mg/kg once a day for 3 days) of the same compound?
Answer: 50.59 ± 21.52 %

Question: And the “Swelling rate (%)” value ([5]; 25 mg/kg once a day for 3 days)?
Answer: 49.87 ± 16.44 %

Question: What about the “ear swelling rate versus normal group (in words)” value ([5]; the three dose groups (6.25, 12.5, 25 mg/kg)) of the same compound?
Answer: significantly lower
